Assay [1] has as its system pNL4-3 V7A. As to the kind of experiment: Antiviral activity against pNL4-3 V7A strain in MT4 cells (p24 estimation). Particulars: Human immunodeficiency virus 1, MT4, 96 h, read-out: pNL4-3 V7A IC50. In kind it is cell-based, HIV-1. The procedure: (§1) MT4 cells were Transfected with HIV-1 Plasmid (pNL4-3-WT & V7A) (Cells were incubating with required number of TCID50 of HIV-1 for 1.5 h at 37° C.). After infection, the infected cells were plated at the concentration of 3×10^4 cells per well in 96 well plate. Test compound was added to the test plate in defined format with the final concentration of DMSO is not more than 1%. Incubation was carried out in CO2 incubator for 4 days for viral infection. At the end of incubation period an aliquot from each well was taken for p24 estimation. p24 estimation was carried out using Advance biosciences kit as per the procedure detailed by supplier.

In assay [2] the test system is HIV-1 strain 92HT599. Kind of assay: Antiviral activity against HIV-1 strain 92HT599 in MT2 cells (p24 estimation). Particulars: Human immunodeficiency virus 1; HIV-1 strain 92HT599, MT2 cells, ~96 hours, p24; read-out: IC50. The assay is classed as cell-based. The procedure: MT2 cells were infected with HIV-1 strain 92HT599 (10 TCID 50/30000 cells). The infected cells were plated at the concentration of ˜30,000 cells per well in 96 well plate. Test compound was added to the micro plate in defined format with the final concentration of DMSO (vehicle) is not more than 1%. Incubation was carried out in CO2 incubator for ˜96 hours for viral infection. At the end of incubation period an aliquot from each well was taken for p24 estimation. The quantitation of p24 is an index for antiviral activity of the compound. Percent inhibition was calculated with reference to control values (vehicle controls). p24 estimation was carried out using Advance biosciences kit as per the procedure detailed by supplier.
The IC50 (nM) values are set forth in below Table-1.

The test system of assay [3] is pNL4-3 WT. As to the kind of experiment: Antiviral activity against pNL4-3 WT strain in MT4 cells (p24 estimation). In kind it is cell-based, HIV-1. Particulars: Human immunodeficiency virus 1, MT4, 96 h, read-out: pNL4-3 WT IC50. The protocol:
as §1

The values below come from patent US12275712B2, “Triterpene derivatives as HIV inhibitors” (HETERO LABS LIMITED, priority 2019, dated 2025).

pIC50: −log10 of the molar value.

For the compound `C[C@H](F)[C@@H](CN[C@]12CC[C@@H](C3(C)CC3)[C@@H]1[C@H]1CC[C@@H]3[C@@]4(C)CC[C@H](OC(=O)[C@H]5C[C@@H](C(=O)O)C5(C)C)C(C)(C)[C@@H]4CC[C@@]3(C)[C@]1(C)CC2)N1CCS(=O)(=O)CC1` [Example 12, (1R,3S)-3-((((1R,3aS,5aR,5bR,7aR,9S,11aR,11bR,13aR,13bR)-3a-(((2R,3 S)-2-(1,1-dioxidothiomorpholino)-3-fluorobutyl)amino)-5a,5b,8,8,11a-pentamethyl-1-(1-methylcyclopropyl)icosahydro-1H-cyclopentachrysen-9-yl)oxy)carbonyl)-2,2-di methylcyclobutane-1-carboxylic acid], the pIC50 is below 7.00 in assay [1], below 7.70 in assay [2] and 7.30 to 8.00 in assay [3].
As for `C[C@H](O)[C@H](CN[C@]12CC[C@@H](C3(C)CC3)[C@@H]1[C@H]1CC[C@@H]3[C@@]4(C)CC[C@H](OC(=O)[C@H]5C[C@@H](C(=O)O)C5(C)C)C(C)(C)[C@@H]4CC[C@@]3(C)[C@]1(C)CC2)N1CCS(=O)(=O)CC1` [Example 13, (1R,3S)-3-((((1R,3aS,5aR,5bR,7aR,9S,11aR,11bR,13aR,13bR)-3a-(((2S,3S)-2-(1,1-dioxidothiomorpholino)-3-hydroxybutyl)amino)-5a,5b,8,8,11a-pentamethyl-1-(1-methylcyclopropyl)icosahydro-1H-cyclopenta[a]chrysen-9-yl)oxy)carbonyl)-2,2-dimethylcyclobutane-1-carboxylic acid], the pIC50 is 7.30 to 9.00 in assay [1], above 8.00 in assay [2] and above 8.00 in assay [3].
As to `CC(C)S(=O)(=O)N1CCN([C@H](CN[C@]23CC[C@@H](C4(C)CC4)[C@@H]2[C@H]2CC[C@@H]4[C@@]5(C)CC[C@H](OC(=O)[C@H]6C[C@@H](C(=O)O)C6(C)C)C(C)(C)[C@@H]5CC[C@@]4(C)[C@]2(C)CC3)[C@@H](C)O)CC1` [Example 14, (1R,3S)-3-((((1R,3aS,5aR,5bR,7aR,9S,11aR,11bR,13aR,13bR)-3a-(((2R,3R)-3-hydroxy-2-(4-(isopropylsulfonyl)piperazin-1-yl)butyl)amino)-5a,5b,8,8,11a-pentamethyl-1-(1-methylcyclopropyl)icosahydro-1H-cyclopenta[a]chrysen-9-yl)oxy)carbonyl)-2,2-dimethylcyclobutane-1-carboxylic acid], the pIC50 in assay [1] was 7.30 to 9.00; in assay [2], above 8.00; in assay [3] it was above 8.00.
`C=C(C)[C@@H]1CC[C@]2(NC[C@H]([C@@H](C)O)N3CCS(=O)(=O)CC3)CC[C@]3(C)[C@H](CC[C@@H]4[C@@]5(C)CC[C@H](OC(=O)[C@H]6C[C@@H](C(=O)O)C6(C)C)C(C)(C)[C@@H]5CC[C@]43C)[C@@H]12` [Example 15, (1R,3S)-3-((((1R,3aS,5aR,5bR,7aR,9S,11aR,11bR,13aR,13bR)-3a-(((2R,3R)-2-(1,1-dioxidothiomorpholino)-3-hydroxybutyl)amino)-5a,5b,8,8,11a-pentamethyl-1-(prop-1-en-2-yl)icosahydro-1H-cyclopenta[a]chrysen-9-yl)oxy)carbonyl)-2,2-dimethylcyclobutane-1-carboxylic acid]: the pIC50 was 7.30 to 9.00 in assay [1], above 8.00 in assay [2] and above 8.00 in assay [3].
With `CC1([C@@H]2CC[C@]3(NC[C@H](C(=O)O)N4CCS(=O)(=O)CC4)CC[C@]4(C)[C@H](CC[C@@H]5[C@@]6(C)CC[C@H](OC(=O)[C@H]7C[C@@H](C(=O)O)C7(C)C)C(C)(C)[C@@H]6CC[C@]54C)[C@@H]23)CC1` [Example 16, (1R,3S)-3-((((1R,3aS,5aR,5bR,7aR,9S,11aR,11bR,13aR,13bR)-3a-(((R)-2-carboxy-2-(1,1-dioxidothiomorpholino)ethyl)amino)-5a,5b,8,8,11a-pentamethyl-1-(1-methylcyclopropyl)icosahydro-1H-cyclopenta[a]chrysen-9-yl)oxy)carbonyl)-2,2-dimethylcyclobutane-1-carboxylic acid], the figures for the negative logarithm of the IC50 (pIC50) in assay [1], in assay [2] and in assay [3] were below 7.00, 7.70 to 8.00 and below 7.30, respectively.
On the same counts, the results for `COCCOCC(=O)O[C@H](C)[C@@H](CN[C@]12CC[C@@H](C3(C)CC3)[C@@H]1[C@H]1CC[C@@H]3[C@@]4(C)CC[C@H](OC(=O)[C@H]5C[C@@H](C(=O)O)C5(C)C)C(C)(C)[C@@H]4CC[C@@]3(C)[C@]1(C)CC2)N1CCS(=O)(=O)CC1` [Example 17, (1R,3S)-3-((((1R,3aS,5aR,5bR,7aR,9S,11aR,11bR,13aR,13bR)-3a-(((2R,3R)-2-(1,1-dioxidothiomorpholino)-3-(2-(2-methoxyethoxy)acetoxy)butyl)amino)-5a,5b,8,8,11a-pentamethyl-1-(1-methylcyclopropyl)icosahydro-1H-cyclopentachrysen-9-yl)oxy)carbonyl)-2,2-dimethylcyclobutane-1-carboxylic acid] are 7.30 to 9.00, above 8.00 and above 8.00.
For the compound `COCCOCCOCCO[C@H](C)[C@@H](CN[C@]12CC[C@@H](C3(C)CC3)[C@@H]1[C@H]1CC[C@@H]3[C@@]4(C)CC[C@H](OC(=O)[C@H]5C[C@@H](C(=O)O)C5(C)C)C(C)(C)[C@@H]4CC[C@@]3(C)[C@]1(C)CC2)N1CCS(=O)(=O)CC1` [Example 18, (1R,3S)-3-((((1R,3aS,5aR,5bR,7aR,9S,11aR,11bR,13aR,13bR)-3a-(((12R,13R)-13-(1,1-dioxidothiomorpholino)-12-methyl-2,5,8,11-tetraoxatetradecan-14-yl)amino)-5a,5b,8,8,11a-pentamethyl-1-(1-methylcyclopropyl)icosahydro-1H-cyclopenta[a]chrysen-9-yl)oxy)carbonyl)-2,2-dimethylcyclobutane-1-carboxylic acid], the negative-log IC50 (pIC50) is 7.30 to 9.00 in assay [1], above 8.00 in assay [2] and above 8.00 in assay [3].
Regarding `C=C(C)[C@@H]1CC[C@]2(NC[C@H]([C@@H](C)OC(=O)COCCOC)N3CCS(=O)(=O)CC3)CC[C@]3(C)[C@H](CC[C@@H]4[C@@]5(C)CC[C@H](OC(=O)[C@H]6C[C@@H](C(=O)O)C6(C)C)C(C)(C)[C@@H]5CC[C@]43C)[C@@H]12` [Example 19, (1R,3S)-3-((((1R,3aS,5aR,5bR,7aR,9S,11aR,11bR,13aR,13bR)-3a-(((2R,3R)-2-(1,1-dioxidothiomorpholino)-3-(2-(2-methoxyethoxy)acetoxy)butyl)amino)-5a,5b,8,8,11a-pentamethyl-1-(prop-1-en-2-yl)icosahydro-1H-cyclopentachrysen-9-yl)oxy)carbonyl)-2,2-dimethylcyclobutane-1-carboxylic acid], the pIC50 was 7.30 to 9.00 in assay [1], above 8.00 in assay [2] and above 8.00 in assay [3].
`C=C(C)[C@@H]1CC[C@]2(NC[C@H]([C@@H](C)O)N3CCS(=O)(=O)CC3)CC[C@]3(C)[C@H](CC[C@@H]4[C@@]5(C)CC[C@H](OC(=O)CC(C)(C)C(=O)O)C(C)(C)[C@@H]5CC[C@]43C)[C@@H]12` [Example 20, 4-(((1R,3aS,5aR,5bR,7aR,9S,11aR,11bR,13aR,13bR)-3a-(((2R,3R)-2-(1,1-dioxidothiomorpholino)-3-hydroxybutyl)amino)-5a,5b,8,8,11a-pentamethyl-1-(prop-1-en-2-yl)icosahydro-1H-cyclopentachrysen-9-yl)oxy)-2,2-dimethyl-4-oxobutanoic acid]: the pIC50 in assay [1] was 7.30 to 9.00; in assay [2] it was above 8.00; in assay [3] it was above 8.00.
